# Test results taken from paper PMC6934184, “Selective DNA-PKcs inhibition extends the therapeutic index of localized radiotherapy and chemotherapy” (The Journal of Clinical Investigation, 2019).
# Tested on: skin immediately surrounding the tumor
# Test: γH2AX foci in skin surrounding subcutaneous Calu-6 tumor
# Format: in vivo, mouse
# Conditions: 5 hours after 3.3 Gy, 30 mg/kg oral, P = 0.09
# Method: Subcutaneous non–small cell lung cancer xenografts were generated in CD-1 nude or BALB/c nude mice using A549 and Calu-6 cells, respectively, as previously described ([53]). When tumors reached 100 mm^3, mice were randomized into 4 groups (n = 7–9 per group) to receive (a) vehicle (orally) 30 minutes before mock radiation, (b) NU5455 (30 mg/kg orally) 30 minutes before mock radiation, (c) targeted tumor radiation at a single dose of 3.3 or 10 Gy, or (d) NU5455 (30 mg/kg orally) 30 minutes before 3.3 Gy or 10 Gy targeted tumor radiation. […]
# NSCLC subcutaneous xenografts were generated as previously described ( 53). […] Mouse weights and tumor volumes (1/2 x length x width x depth) were measured three times a week.
# Targeted radiotherapy in subcutaneous and orthotopic NSCLC xenograft models When subcutaneous xenografts reached 100 mm3, mice were randomized into four groups (n = 7 - 11/group): (i) N-Methyl-2-pyrrolidone (NMP): 30% Encapsin : PEG400 (1:6:3 v/v/v) vehicle p.o. 30 minutes prior to mock radiation. […] The remaining mice were monitored for tumor growth until the sizes of tumo rs reached 400 mm 3 or up to 38 days after initiation of […]
# Tissues were fixed in 4% paraformaldehyde (PFA) and paraffin -embedded. […] The percentage of γH2AX and 53BP1 positive nuclei in lung epithelial cells was quantified manually in normal lung samples across 5 randomly-chosen fields of view per […]
smiles,measurement,value
CN(C(=O)CN1CCOCC1)c1ccc2sc3c(-c4cccc5c(=O)cc(N6CC7CCC(C6)O7)oc45)cccc3c2c1 [NU5455],"radiation-induced γH2AX foci, fold augmented with NU5455",1.6 fold
